In PMC7570983, “Synthesis of Novel 2-(Isopropylamino)thiazol-4(5H)-one Derivatives and Their Inhibitory Activity of 11β-HSD1 and 11β-HSD2 in Aspect of Carcinogenesis Prevention” (Molecules, 2020):

Molecular target: T1, 11β-HSD2 (Homo sapiens, UniProt P80365)
T1 construct: gene HSD11B2
T1 sequence (P80365 1-405): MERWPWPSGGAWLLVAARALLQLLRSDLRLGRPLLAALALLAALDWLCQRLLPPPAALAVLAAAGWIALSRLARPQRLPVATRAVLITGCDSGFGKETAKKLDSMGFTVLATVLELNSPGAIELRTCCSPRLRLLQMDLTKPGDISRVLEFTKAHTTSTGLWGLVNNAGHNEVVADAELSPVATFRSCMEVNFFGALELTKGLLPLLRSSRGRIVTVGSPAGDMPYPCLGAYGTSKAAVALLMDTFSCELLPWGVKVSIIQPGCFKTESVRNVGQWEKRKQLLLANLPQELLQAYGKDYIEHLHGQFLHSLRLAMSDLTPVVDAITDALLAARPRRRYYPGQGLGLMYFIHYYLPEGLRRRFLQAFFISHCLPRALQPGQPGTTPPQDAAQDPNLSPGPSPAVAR
Experiment: % inhibition at […], human kidney microsomes, cortisol ELISA
Assay type: cell-based
Details: read-out: % of 11β-HSD2 Inhibition 10 μM/IC50 [μM] ^a

- inhibition at 10 µM: 47.1 ± 2.51%
Compound: CCC1SC(NC(C)C)=NC1=O (stereo not shown) [3b, 5-Ethyl-2-(isopropylamino)thiazol-4(5H)-one]
